In PMC5224920, “Assessing the mechanism and therapeutic potential of modulators of the human Mediator complex-associated protein kinases” (eLife, 2016):

Test system: 12 single or co-culture in vitro tissue models of primary cells
Experiment: Culture/co-culture cell model panel, extracellular biomarkers (DiscoveRx); for CCL2/MCP-1: reference of the scale not given here; for CD141/Thrombomodulin: reference of the scale not given here; for CD142/Tissue Factor: reference of the scale not given here; for CXCL8/IL-8: reference of the scale not given here; for CXCL9/MIG: reference of the scale not given here; for M-CSF: reference of the scale not given here; for Proliferation: reference of the scale not given here; for SRB: reference of the scale not given here
Type: cell-based, human

Cc1n[nH]c2ncc(C(=O)N3CCC[C@H]3c3ccc(Cl)cc3)cc12 [CMPD4]
CCL2/MCP-1 (3C, 1.00E4 nM): -0.095 | CD54/ICAM-1 (3C, 1.00E4 nM): -0.015 | CD62E/E-Selectin (3C, 1.00E4 nM): 0.054 | CD87/uPAR (3C, 1.00E4 nM): -0.432 | CD106/VCAM-1 (3C, 1.00E4 nM): 0.073 | CD141/Thrombomodulin (3C, 1.00E4 nM): 0.088 | CD142/Tissue Factor (3C, 1.00E4 nM): 0.112 | CXCL8/IL-8 (3C, 1.00E4 nM): -0.381 | CXCL9/MIG (3C, 1.00E4 nM): -0.030 | HLA-DR (3C, 1.00E4 nM): -0.292 | Proliferation (3C, 1.00E4 nM): -0.144 | SRB (3C, 1.00E4 nM): -0.077 | CCL2/MCP-1 (3C, 1.11E3 nM): -0.139 | CD54/ICAM-1 (3C, 1.11E3 nM): -0.012 | CD62E/E-Selectin (3C, 1.11E3 nM): 0.043 | CD87/uPAR (3C, 1.11E3 nM): -0.475 | CD106/VCAM-1 (3C, 1.11E3 nM): 0.074 | CD141/Thrombomodulin (3C, 1.11E3 nM): 0.143 | CD142/Tissue Factor (3C, 1.11E3 nM): 0.111 | CXCL8/IL-8 (3C, 1.11E3 nM): -0.399 | CXCL9/MIG (3C, 1.11E3 nM): -0.035 | HLA-DR (3C, 1.11E3 nM): -0.213 | Proliferation (3C, 1.11E3 nM): -0.067 | SRB (3C, 1.11E3 nM): -0.088 | CCL2/MCP-1 (3C, 1.23E2 nM): -0.155 | CD54/ICAM-1 (3C, 1.23E2 nM): -0.013 | CD62E/E-Selectin (3C, 1.23E2 nM): 0.033 | CD87/uPAR (3C, 1.23E2 nM): -0.463 | CD106/VCAM-1 (3C, 1.23E2 nM): 0.092 | CD141/Thrombomodulin (3C, 1.23E2 nM): 0.134 | CD142/Tissue Factor (3C, 1.23E2 nM): 0.145 | CXCL8/IL-8 (3C, 1.23E2 nM): -0.289 | CXCL9/MIG (3C, 1.23E2 nM): -0.028 | HLA-DR (3C, 1.23E2 nM): -0.216 | Proliferation (3C, 1.23E2 nM): -0.036 | SRB (3C, 1.23E2 nM): -0.101 | CCL2/MCP-1 (3C, 1.37E1 nM): -0.054 | CD54/ICAM-1 (3C, 1.37E1 nM): -0.029 | CD62E/E-Selectin (3C, 1.37E1 nM): 0.033 | CD87/uPAR (3C, 1.37E1 nM): -0.383 | CD106/VCAM-1 (3C, 1.37E1 nM): 0.060 | CD141/Thrombomodulin (3C, 1.37E1 nM): 0.107 | CD142/Tissue Factor (3C, 1.37E1 nM): 0.109 | CXCL8/IL-8 (3C, 1.37E1 nM): -0.180 | CXCL9/MIG (3C, 1.37E1 nM): -0.010 | HLA-DR (3C, 1.37E1 nM): -0.145 | Proliferation (3C, 1.37E1 nM): -0.003 | SRB (3C, 1.37E1 nM): -0.076 | CCL2/MCP-1 (3C, 3.33E3 nM): -0.119 | CD54/ICAM-1 (3C, 3.33E3 nM): -0.027 | CD62E/E-Selectin (3C, 3.33E3 nM): 0.034 | CD87/uPAR (3C, 3.33E3 nM): -0.471 | CD106/VCAM-1 (3C, 3.33E3 nM): 0.069 | CD141/Thrombomodulin (3C, 3.33E3 nM): 0.129 | CD142/Tissue Factor (3C, 3.33E3 nM): 0.128 | CXCL8/IL-8 (3C, 3.33E3 nM): -0.412 | CXCL9/MIG (3C, 3.33E3 nM): -0.032 | HLA-DR (3C, 3.33E3 nM): -0.242 | Proliferation (3C, 3.33E3 nM): -0.090 | SRB (3C, 3.33E3 nM): -0.073 | CCL2/MCP-1 (3C, 3.70E2 nM): -0.153 | CD54/ICAM-1 (3C, 3.70E2 nM): -0.078 | CD62E/E-Selectin (3C, 3.70E2 nM): 0.052 | CD87/uPAR (3C, 3.70E2 nM): -0.455 | CD106/VCAM-1 (3C, 3.70E2 nM): 0.094 | CD141/Thrombomodulin (3C, 3.70E2 nM): 0.139 | CD142/Tissue Factor (3C, 3.70E2 nM): 0.142 | CXCL8/IL-8 (3C, 3.70E2 nM): -0.363 | CXCL9/MIG (3C, 3.70E2 nM): -0.028 | HLA-DR (3C, 3.70E2 nM): -0.210 | Proliferation (3C, 3.70E2 nM): -0.026 | SRB (3C, 3.70E2 nM): -0.097 | CCL2/MCP-1 (3C, 4.12E1 nM): -0.076 | CD54/ICAM-1 (3C, 4.12E1 nM): -0.033 | CD62E/E-Selectin (3C, 4.12E1 nM): 0.032 | CD87/uPAR (3C, 4.12E1 nM): -0.415 | CD106/VCAM-1 (3C, 4.12E1 nM): 0.093 | CD141/Thrombomodulin (3C, 4.12E1 nM): 0.127 | CD142/Tissue Factor (3C, 4.12E1 nM): 0.136 | CXCL8/IL-8 (3C, 4.12E1 nM): -0.222 | CXCL9/MIG (3C, 4.12E1 nM): -0.007 | HLA-DR (3C, 4.12E1 nM): -0.208 | Proliferation (3C, 4.12E1 nM): -0.018 | SRB (3C, 4.12E1 nM): -0.080 | CCL2/MCP-1 (3C, 4.57E0 nM): 0.026 | CD54/ICAM-1 (3C, 4.57E0 nM): -0.005 | CD62E/E-Selectin (3C, 4.57E0 nM): 0.022 | CD87/uPAR (3C, 4.57E0 nM): -0.265 | CD106/VCAM-1 (3C, 4.57E0 nM): 0.039 | CD141/Thrombomodulin (3C, 4.57E0 nM): 0.096 | CD142/Tissue Factor (3C, 4.57E0 nM): 0.092 | CXCL8/IL-8 (3C, 4.57E0 nM): -0.109 | CXCL9/MIG (3C, 4.57E0 nM): -0.014 | HLA-DR (3C, 4.57E0 nM): -0.077 | Proliferation (3C, 4.57E0 nM): -0.017 | SRB (3C, 4.57E0 nM): -0.052 | CCL2/MCP-1 (/HDF3CT, 1.00E4 nM): -0.123 | CD54/ICAM-1 (/HDF3CT, 1.00E4 nM): -0.074 | CD106/VCAM-1 (/HDF3CT, 1.00E4 nM): 0.00544 | CXCL8/IL-8 (/HDF3CT, 1.00E4 nM): -0.159 | CXCL9/MIG (/HDF3CT, 1.00E4 nM): -0.043 | CXCL10/IP-10 (/HDF3CT, 1.00E4 nM): -0.008 | Collagen I (/HDF3CT, 1.00E4 nM): -0.050 | M-CSF (/HDF3CT, 1.00E4 nM): -0.035 | MMP-1 (/HDF3CT, 1.00E4 nM): -0.057 | PAI-I (/HDF3CT, 1.00E4 nM): -0.206 | SRB (/HDF3CT, 1.00E4 nM): -0.005 | TIMP-2 (/HDF3CT, 1.00E4 nM): 0.00643 | CCL2/MCP-1 (/HDF3CT, 1.11E3 nM): -0.116 | CD54/ICAM-1 (/HDF3CT, 1.11E3 nM): -0.059 | CD106/VCAM-1 (/HDF3CT, 1.11E3 nM): 0.008 | CXCL8/IL-8 (/HDF3CT, 1.11E3 nM): -0.199 | CXCL9/MIG (/HDF3CT, 1.11E3 nM): -0.051 | CXCL10/IP-10 (/HDF3CT, 1.11E3 nM): 0.00172 | Collagen I (/HDF3CT, 1.11E3 nM): -0.048 | M-CSF (/HDF3CT, 1.11E3 nM): -0.052 | MMP-1 (/HDF3CT, 1.11E3 nM): -0.043 | PAI-I (/HDF3CT, 1.11E3 nM): -0.122 | SRB (/HDF3CT, 1.11E3 nM): 0.010 | TIMP-2 (/HDF3CT, 1.11E3 nM): 0.028 | CCL2/MCP-1 (/HDF3CT, 1.23E2 nM): -0.004 | CD54/ICAM-1 (/HDF3CT, 1.23E2 nM): -0.048 | CD106/VCAM-1 (/HDF3CT, 1.23E2 nM): 0.017 | CXCL8/IL-8 (/HDF3CT, 1.23E2 nM): -0.167 | CXCL9/MIG (/HDF3CT, 1.23E2 nM): -0.040 | CXCL10/IP-10 (/HDF3CT, 1.23E2 nM): 0.011 | Collagen I (/HDF3CT, 1.23E2 nM): -0.027 | M-CSF (/HDF3CT, 1.23E2 nM): -0.051 | MMP-1 (/HDF3CT, 1.23E2 nM): 0.00166 | PAI-I (/HDF3CT, 1.23E2 nM): -0.00646 | SRB (/HDF3CT, 1.23E2 nM): 0.00373 | TIMP-2 (/HDF3CT, 1.23E2 nM): 0.061 | CCL2/MCP-1 (/HDF3CT, 1.37E1 nM): 0.037 | CD54/ICAM-1 (/HDF3CT, 1.37E1 nM): -0.040 | CD106/VCAM-1 (/HDF3CT, 1.37E1 nM): 0.019 | CXCL8/IL-8 (/HDF3CT, 1.37E1 nM): -0.056 | CXCL9/MIG (/HDF3CT, 1.37E1 nM): 0.00152 | CXCL10/IP-10 (/HDF3CT, 1.37E1 nM): 0.022 | Collagen I (/HDF3CT, 1.37E1 nM): -0.019 | M-CSF (/HDF3CT, 1.37E1 nM): -0.071 | MMP-1 (/HDF3CT, 1.37E1 nM): 0.083 | PAI-I (/HDF3CT, 1.37E1 nM): 0.023 | SRB (/HDF3CT, 1.37E1 nM): 0.004 | TIMP-2 (/HDF3CT, 1.37E1 nM): 0.069 | CCL2/MCP-1 (/HDF3CT, 3.33E3 nM): -0.101 | CD54/ICAM-1 (/HDF3CT, 3.33E3 nM): -0.068 | CD106/VCAM-1 (/HDF3CT, 3.33E3 nM): 0.005 | CXCL8/IL-8 (/HDF3CT, 3.33E3 nM): -0.189 | CXCL9/MIG (/HDF3CT, 3.33E3 nM): -0.053 | CXCL10/IP-10 (/HDF3CT, 3.33E3 nM): 0.002 | Collagen I (/HDF3CT, 3.33E3 nM): -0.071 | M-CSF (/HDF3CT, 3.33E3 nM): -0.054 | MMP-1 (/HDF3CT, 3.33E3 nM): -0.042 | PAI-I (/HDF3CT, 3.33E3 nM): -0.184 | SRB (/HDF3CT, 3.33E3 nM): 0.008 | TIMP-2 (/HDF3CT, 3.33E3 nM): 0.012 | CCL2/MCP-1 (/HDF3CT, 3.70E2 nM): -0.041 | CD54/ICAM-1 (/HDF3CT, 3.70E2 nM): -0.059 | CD106/VCAM-1 (/HDF3CT, 3.70E2 nM): 0.017 | CXCL8/IL-8 (/HDF3CT, 3.70E2 nM): -0.180 | CXCL9/MIG (/HDF3CT, 3.70E2 nM): -0.046 | CXCL10/IP-10 (/HDF3CT, 3.70E2 nM): 0.00747 | Collagen I (/HDF3CT, 3.70E2 nM): -0.040
